Reference: US9149038B2, “4-amino-6-(heterocyclic)picolinates and 6-amino-2-(heterocyclic)pyrimidine-4-carboxylates and their use as herbicides” (Dow AgroSciences LLC, priority 2013, dated 2015)
Read-outs that look alike come from different tables or passages of the source.

Key:
[1] = system: Key Grass and Sedge Weeds as well as Grass Crops; test: Post-Emergent Test II: postemergent herbicidal activity, visual rating after 14 d (Table 8); type: in vivo; conditions: post-emergence, 336 h; for pest or weed control at 35 g/ha: 35 g ai/ha; for pest or weed control at 70 g/ha: 70 g ai/ha; for pest or weed control at 140 g/ha: 140 g ai/ha
Procedure, shortened: (§1)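 Scoring is visual, 0-100, at 14 d after application, comparing treated with untreated plants. Application: overhead track spray at 187 L/ha onto seedlings at 1-2 true leaves, in surfactant/crop-oil carrier.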

[2] = system: Key Broadleaf Weed and Crop Species; test: Post-Emergent Test II: postemergent herbicidal activity, visual rating after 14 d (Table 7); type: in vivo; conditions: post-emergence, 336 h; for pest or weed control at 35 g/ha: 35 g ai/ha; for pest or weed control at 70 g/ha: 70 g ai/ha; for pest or weed control at 140 g/ha: 140 g ai/ha
Procedure, shortened: as §1

[3] = barnyardgrass (Echinochloa crus-galli), read-out: Visual Growth Reduction (%) 14 Days After Application ECHCG
[4] = giant foxtail (Setaria faberi), read-out: Visual Growth Reduction (%) 14 Days After Application SETFA
[5] = maize, corn (Zea mays), read-out: Visual Growth Reduction (%) 14 Days After Application ZEAMX
[6] = rice (Oryza sativa), read-out: Visual Growth Reduction (%) 14 Days After Application ORYSA
[7] = wheat, spring (Triticum aestivum), read-out: Visual Growth Reduction (%) 14 Days After Application TRZAS
[8] = yellow nutsedge (Cyperus esculentus), read-out: Visual Growth Reduction (%) 14 Days After Application CYPES
[9] = lambsquarters (Chenopodium album), read-out: Visual Growth Reduction (%) 14 Days After Application CHEAL
[10] = oilseed rape, canola (Brassica napus), read-out: Visual Growth Reduction (%) 14 Days After Application BRSNN
[11] = redroot pigweed (Amaranthus retroflexus), read-out: Visual Growth Reduction (%) 14 Days After Application AMARE
[12] = sunflower (Helianthus annuus), read-out: Visual Growth Reduction (%) 14 Days After Application HELAN
[13] = velvetleaf (Abutilon theophrasti), read-out: Visual Growth Reduction (%) 14 Days After Application ABUTH
[14] = wild poinsettia (Euphorbia heterophylla), read-out: Visual Growth Reduction (%) 14 Days After Application EPHHL

**Q.** COc1c(C(=O)O)nc(-c2ccc3c(c2)OC(F)(F)O3)c(F)c1N [Compound 25] was tested. Which pest or weed control at 35 g/ha [1, 3] did it give?
**A.** 85 to 94%

**Q.** What about the pest or weed control at 70 g/ha [1, 3] of the same compound?
**A.** 85 to 94%

**Q.** What about the pest or weed control at 140 g/ha [1, 3] of the same compound?
**A.** 95 to 100%

**Q.** What about the pest or weed control at 35 g/ha [1, 4] of the same compound?
**A.** 45 to 59%

**Q.** What about the pest or weed control at 70 g/ha [1, 4] of the same compound?
**A.** 60 to 74%

**Q.** And the pest or weed control at 140 g/ha [1, 4]?
**A.** 60 to 74%

**Q.** What about the pest or weed control at 35 g/ha [1, 5] of the same compound?
**A.** 60 to 74%

**Q.** And the pest or weed control at 70 g/ha [1, 5]?
**A.** 75 to 84%

**Q.** And the pest or weed control at 140 g/ha [1, 5]?
**A.** 75 to 84%

**Q.** And the pest or weed control at 35 g/ha [1, 6]?
**A.** 0 to 29%

**Q.** And the pest or weed control at 70 g/ha [1, 6]?
**A.** 30 to 44%

**Q.** What about the pest or weed control at 140 g/ha [1, 6] of the same compound?
**A.** 60 to 74%

**Q.** What about the pest or weed control at 35 g/ha [1, 7] of the same compound?
**A.** 45 to 59%

**Q.** What about the pest or weed control at 70 g/ha [1, 7] of the same compound?
**A.** 45 to 59%

**Q.** What about the pest or weed control at 140 g/ha [1, 7] of the same compound?
**A.** 60 to 74%

**Q.** What about the pest or weed control at 35 g/ha [1, 8] of the same compound?
**A.** 95 to 100%

**Q.** What about the pest or weed control at 70 g/ha [1, 8] of the same compound?
**A.** 95 to 100%

**Q.** What about the pest or weed control at 140 g/ha [1, 8] of the same compound?
**A.** 95 to 100%

**Q.** What about the pest or weed control at 35 g/ha [2, 9] of the same compound?
**A.** 0 to 29%

**Q.** And the pest or weed control at 70 g/ha [2, 9]?
**A.** 0 to 29%

**Q.** What about the pest or weed control at 140 g/ha [2, 9] of the same compound?
**A.** 45 to 59%

**Q.** And the pest or weed control at 35 g/ha [2, 10]?
**A.** 75 to 84%

**Q.** And the pest or weed control at 70 g/ha [2, 10]?
**A.** 95 to 100%

**Q.** And the pest or weed control at 140 g/ha [2, 10]?
**A.** 95 to 100%

**Q.** What about the pest or weed control at 35 g/ha [2, 11] of the same compound?
**A.** 0 to 29%

**Q.** And the pest or weed control at 70 g/ha [2, 11]?
**A.** 0 to 29%

**Q.** And the pest or weed control at 140 g/ha [2, 11]?
**A.** 0 to 29%

**Q.** What about the pest or weed control at 35 g/ha [2, 12] of the same compound?
**A.** 0 to 29%

**Q.** And the pest or weed control at 70 g/ha [2, 12]?
**A.** 0 to 29%

**Q.** And the pest or weed control at 140 g/ha [2, 12]?
**A.** 0 to 29%

**Q.** What about the pest or weed control at 35 g/ha [2, 13] of the same compound?
**A.** 45 to 59%

**Q.** What about the pest or weed control at 70 g/ha [2, 13] of the same compound?
**A.** 60 to 74%

**Q.** What about the pest or weed control at 140 g/ha [2, 13] of the same compound?
**A.** 75 to 84%

**Q.** And the pest or weed control at 35 g/ha [2, 14]?
**A.** 95 to 100%

**Q.** And the pest or weed control at 70 g/ha [2, 14]?
**A.** 95 to 100%

**Q.** And the pest or weed control at 140 g/ha [2, 14]?
**A.** 95 to 100%
